According to patent publication US11071735B2, “Treatment of inflammatory conditions and autoimmune diseases with glucose uptake inhibitors” (Kadmon Corporation, LLC, priority 2017, dated 2021):

Assays:
[1] = tested on: MOG-induced experimental autoimmune encephalitis; assay: mouse MOG-induced experimental autoimmune encephalitis (EAE) model; type: in vivo; details: compared to vehicle control
Description: In FIG. 4, Example 2 is shown to have efficacy against an in vivo mouse model of inflammation, MOG-induced experimental autoimmune encephalitis. Example 2 both delays the onset and lowers the end clinical score of inflammation in this model.
Mouse Prophylactic MOG-EAE Model: Performed at Hooke laboratories.

[2] = tested on: markers of Teff and Treg cells; assay: flow cytometry of cytokines and lineage transcription factors in activated CD4 T cells; type: cell-based, human; details: 1 μM; CD4 T cells activated 48 hrs with IL-1β, TGF-β
Procedure: FIG. 7. […] FIG. 7A. CD4 T cells were activated for 48 hrs in the presence of IL-1β, TGF-β and 1 μM of the Example 2 compound. For the last 5 hrs, PMA/Ionomycin/Brefeldin A was added and intracellular staining for cytokines was performed. Flow cytometry was used to assess INFγ and IL-17A levels (gated on live cells). FIG. 7B. Cells were cultured and treated as in FIG. 7A, excluding PMA/Ionomycin/Brefeldin A treatment. Flow cytometry was used to assess levels of CD4 T cell lineage defining transcription factors.
GLUT1 and GLUT3 inhibitors downregulate the markers of T effector cells but not T regulatory cells. In, CD4 T cells were activated for 48 hrs in the presence of […], TGF-β and 1 μM of compound Example 2. […] Flow cytometry was used to assess INFγ and IL-17A levels (gated on live cells) and quantification of percent positive cells positive is shown in FIG. 7A. […]
T cell assays: Human CD4 T cells were purified using RossetteSep Human CD4 T cell Enrichment Cocktail. […] IL-17 levels were measured by ELISA (R&D systems, Human IL-17 Quantikine ELISA kit). Proliferation was measured by Cell Titer Glo (Promega). Intracellular staining was performed and analyzed using the Guava EasyCyte flow cytometer. […] Protein levels and phosphorylation status were assessed by western blot analysis using antibodies purchased from Cell Signaling.

[3] = tested on: TNFalpha and MCP-1 levels; assay: LPS/D-galactosamine mouse model, cytokine production; type: in vivo; details: 100 mg/kg p.o.
Procedure: 100 μg LPS and 18 mg D-galactosamine were used to induce cytokine production. […] In FIG. 6, Example 2 is shown to modulate cytokine/chemokine production in response to LPS/D-galactosamine (mouse model of sepsis and liver damage). Example 2 prevents the dramatic increase of TNFalpha (FIG. 6A), a cytokine well-established as a major driver of inflammation. In line with in vitro results, Example 2 abrogates an initial increase in MCP-1 (FIG. 6B), but is unable to statistically suppress MCP1 induction at later time points (not shown). LPS Mouse Model: Performed at Pharmalegacy.

GLUT1 = biological target: T1, GLUT1 (Homo sapiens, UniProt P11166); assay: glycolysis assay in DLD1 WT cells (rely on GLUT1); type: cell-based; details: DLD1-WT cells; 10 μM oligomycin, one hour
T1 construct: endogenous in cells; host or cells: DLD1 WT cancer cells
T1 sequence (P11166 1-492): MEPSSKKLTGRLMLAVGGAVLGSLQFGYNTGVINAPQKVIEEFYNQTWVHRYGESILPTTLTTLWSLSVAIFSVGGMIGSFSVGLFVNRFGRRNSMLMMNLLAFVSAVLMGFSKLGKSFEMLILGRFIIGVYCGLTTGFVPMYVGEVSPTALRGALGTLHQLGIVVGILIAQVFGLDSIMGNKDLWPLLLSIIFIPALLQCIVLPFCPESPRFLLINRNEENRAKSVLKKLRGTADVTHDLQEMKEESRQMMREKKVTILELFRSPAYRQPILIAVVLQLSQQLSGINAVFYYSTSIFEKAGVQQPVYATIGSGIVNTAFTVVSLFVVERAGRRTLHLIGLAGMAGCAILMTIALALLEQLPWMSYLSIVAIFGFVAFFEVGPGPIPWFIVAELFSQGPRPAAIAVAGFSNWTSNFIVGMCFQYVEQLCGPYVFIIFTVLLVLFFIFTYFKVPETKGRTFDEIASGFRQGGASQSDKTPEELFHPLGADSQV
Method in brief: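 Cells […] exposed for 1 h to inhibitor plus 10 μM oligomycin to block mitochondrial ATP; remaining glycolytic ATP read by CellTiter-Glo luminescence. IC50 derived from dose-response curves.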

IC50 (GLUT1): 115 nM
Compound: CCOc1ccc2nc(-c3cccc(OCC(=O)NC(C)C)c3)nc(Nc3ccc(-c4cn[nH]c4)cc3)c2c1 [Ex. 2, 2-(3-(4-((4-(1H-pyrazol-4-yl)phenyl)amino)-6-ethoxyquinazolin-2-yl)phenoxy)-N-isopropylacetamide]
end clinical score ([1]; 30 mg/kg p.o. daily): lowered the end clinical score | onset of EAE ([1]; 30 mg/kg p.o. daily): delayed onset | end clinical score ([1]; 100 mg/kg p.o. daily): lowered the end clinical score | onset of EAE ([1]; 100 mg/kg p.o. daily): delayed onset | markers of Teff and Treg cells [2]: downregulate markers of Teff but not Treg cells | increase of MCP-1 levels ([3]; 2 hours post LPS/Galn): unable to prevent a statistically significant increase | increase of MCP-1 ([3]; one hour following LPS/Galn): inhibits the increase | increase of TNFalpha ([3]; one hour following LPS/Galn): inhibits the increase
